Results: US20010003121A1, “Novel compounds” (AstraZeneca UK Limited, priority 1997, published 2001)
Where a name gives a salt, the structure may show the parent alone.

Compound | melting point
O=C(NCC12CC3CC(CC(C3)C1)C2)c1ccccc1Cc1ccccc1 [Example 23, 2-(Phenylmethyl) -N-(tricyclo[3.3.1.1^3,7]dec-1-methyl)-benzamide] | 156 to 157 °C
CC(C)(C)OC(=O)COc1ccccc1C(=O)NCC12CC3CC(CC(C3)C1)C2 [Example 25, 2-[[(Tricyclo[3.3.1.1^3,7]dec-1-ylmethyl)amino]carbony]phenyl-1-oxyacetic acid, 1,1-dimethylethyl ester] | 101 to 103 °C
C[S+]([O-])c1ncccc1C(=O)NCC12CC3CC(CC(C3)C1)C2 (centres unmarked) [Example 27, 2-(Methylsulphoxide)-N-(tricyclo[3.3.1.1^3,7]dec-1-methyl)-3-pyridine carboxamide] | 214 °C
O=C(NCC12CC3CC(CC(C3)C1)C2)c1ccccc1I [Example 8, 2-Iodo-N-(tricyclo[3.3.1.1^3,7]dec-1-methyl)-benzamide] | 194 to 195 °C
COc1cccc(OC)c1C(=O)NCC12CC3CC(CC(C3)C1)C2 | 185 to 186 °C
N#Cc1ccccc1Sc1ccccc1C(=O)NCC12CC3CC(CC(C3)C1)C2 [Example 16, 2-(2-Cyanophenylthio)-N-(tricyclo[3.3.1.1^3,7]dec-1-methyl)-benzamide] | 62 to 65 °C
O=C(NCC12CC3CC(CC(C3)C1)C2)c1cccc(F)c1Cl [Example 41, 2-Chloro-3-fluoro-N-(tricyclo[3.3.1.1^3,7]dec-1-ylmethyl)-benzamide] | 149 to 151 °C
O=C(NCC12CC3CC(CC(C3)C1)C2)c1ccc2[nH]ccc2c1 [Example 28, N-(tricyclo[3.3.1.1^3,7]dec-1-methyl)-5-indole carboxamide] | 206 to 207 °C
O=C(NCC12CC3CC(CC(C3)C1)C2)c1cc(NCCCl)ccc1Cl | 144 to 145 °C
Nc1cccc(Cl)c1C(=O)NCC12CC3CC(CC(C3)C1)C2 [Example 14, 2-Amino-6-chloro-N-(tricyclo[3.3.1.1^3,7]dec-1-methyl)-benzamide] | 182 to 183 °C
O=C(NCC12CC3CC(CC(C3)C1)C2)c1c(F)cccc1F [Example 12, 2,6-Difluoro-N-(tricyclo[3.3.1.1^3,7]dec-1-methyl)-benzamide] | 162 to 163 °C
O=C(NCC12CC3CC(CC(C3)C1)C2)c1ccccc1C(F)(F)F [Example 11, 2-(Trifluoromethyl)-N-(tricyclo[3.3.1.1^3,7]dec-1-methyl)-benzamide] | 165 to 167 °C
CN(C)CCNc1ncccc1C(=O)NCC12CC3CC(CC(C3)C1)C2 (as salt: hydrochloride) [Example 32, 2-(2-(N,N-Dimethylamino)ethylamino)-N-(tricyclo[3.3.1.1^3,7]dec-1-ylmethyl)-3-pyridine carboxamide, dihydrochloride] | 258 to 260 °C
O=C(NCC12CC3CC(CC(C3)C1)C2)c1cc(N2CC2)ccc1Cl | 154 to 155 °C
COc1ccc(Sc2ncccc2C(=O)NCC23CC4CC(CC(C4)C2)C3)cc1 [Example 40, 2-(4-Methoxyphenylthio)-N-(tricyclo[3.3.1.1^3,7]dec-1-ylmethyl)-3-pyridine carboxamide] | 130 to 131 °C
CN(C)CCCOc1ccc(Sc2ncccc2C(=O)NCC23CC4CC(CC(C4)C2)C3)cc1 (as salt: hydrochloride) [Example 48, 2-(4-(3-N,N-dimethylamino)propyloxyphenylthio)-N-(tricyclo[3.3.1.1^3,7]dec-1-ylmethyl)-3-pyridine carboxamide, dihydrochloride] | 177 to 178 °C
O=C(NCC12CC3CC(CC(C3)C1)C2)c1cc(F)ccc1Cl [Example 43, 2-Chloro-5-fluoro-N-(tricyclo[3.3.1.1^3,7]dec-1-ylmethyl)-benzamide] | 176 to 177 °C
O=C(NCC12CC3CC(CC(C3)C1)C2)c1ccccc1[N+](=O)[O-] [Example 9, 2-Nitro-N-(tricyclo[3.3.1.1^3,7]dec-1-methyl)-benzamide] | > 250 °C
NCCSc1ncccc1C(=O)NCC12CC3CC(CC(C3)C1)C2 (as salt: trifluoroacetate) [Example 31, 2-(2-Aminoethylthio)-N-(tricyclo[3.3.1.1^3,7]dec-1-ylmethyl)-3-pyridine carboxamide, trifluoroacetate] | 184 °C
CSc1ccccc1C(=O)NCC12CC3CC(CC(C3)C1)C2 [Example 18, 2-(Methylthio)-N-(tricyclo[3.3.1.1^3,7]dec-1-methyl)-benzamide] | 171 to 172 °C
O=C(O)CSc1ncccc1C(=O)NCC12CC3CC(CC(C3)C1)C2 [Example 45, 3-[[(Tricyclo[3.3.1.1^3,7]dec-1-ylmethyl)amino]carbonyl]pyridyl-2-thioacetic acid] | 147 to 150 °C
O=C(O)COc1ccc(Sc2ncccc2C(=O)NCC23CC4CC(CC(C4)C2)C3)cc1 [Example 47, 3-[[(Tricyclo[3.3.1.1^3,7]dec-1-ylmethyl)amino]carbonyl]pyridyl-2-(4-phenylthio) oxyacetic acid] | 185 to 186 °C
O=C(NCC12CC3CC(CC(C3)C1)C2)c1cccnc1Sc1cc(O)ccc1O [Example 44, 2-(2,5-Dihydroxyphenylthio)-N-(tricyclo[3.3.1.1^3,7]dec-1-ylmethyl)-3-pyridine carboxamide] | 108 to 110 °C
CSc1ccc(Cl)c(C(=O)NCC23CC4CC(CC(C4)C2)C3)c1 [Example 38, 2-Chloro-5-methylthio-N-(tricyclo[3.3.1.1^3,7]dec-1-ylmethyl)-benzamide] | 126 to 127 °C
O=C(NCC12CC3CC(CC(C3)C1)C2)c1c(F)cccc1C(F)(F)F [Example 13, 2-(Trifluoromethyl)-6-flouro-N-(tricyclo(3.3.1.1^3,7]dec-1-methyl)-benzamide] | 151 to 153 °C
Cc1ccc(C)c(C(=O)NCC23CC4CC(CC(C4)C2)C3)c1 [Example 22, 2,5-Dimethyl-N-(tricyclo[3.3.1.1^3,7]dec-1-methyl)-benzamide] | 153 to 154 °C
Nc1cccc(Cl)c1C(=O)NCCC12CC3CC(CC(C3)C1)C2 [Example 29, 2-Amino-6-chloro-N-(2-[tricyclo[3.3.1.1^3,7]dec-1-yl]ethyl)-benzamide] | 132 to 134 °C

Results, then the compound that gave them:

melting point | Compound
220 °C (dec.) | Cc1c(N)cc(N)cc1C(=O)NCC12CC3CC(CC(C3)C1)C2 [Example 66, 3,5-Diamino-2-methyl-N-(tricyclo[3.3.1.1^3,7]dec-1-ylmethyl)-benzamide]
185 °C | O=C(NCC12CC3CC(CC(C3)C1)C2)c1cccc([N+](=O)[O-])c1Cl [Example 52, 2-Chloro-3-nitro-N-(tricyclo[3.3.1.1^3,7]dec-1-ylmethyl)-benzamide]
143 °C (dec.) | O=C(NCC12CC3CC(CC(C3)C1)C2)c1cc(NCCNCCO)ccc1Cl (as salt: hydrochloride) [Example 71, 5-(N-(2-Hydroxyethyl)-2-aminoethyl)amino-2-chloro-N-(tricyclo[3.3.1.1^3,7]dec-1-ylmethyl)-benzamide, dihydrochloride]
263 to 264 °C | O=C(NCC12CC3CC(CC(C3)C1)C2)c1cc(O)ccc1Cl [Example 51, 2-Chloro-5-hydroxy-N-(tricyclo[3.3.1.1^3,7]dec-1-ylmethyl)-benzamide]
130 to 133 °C | COc1cc(OC)cc(C(=O)NCC23CC4CC(CC(C4)C2)C3)c1 [Example 68]
221 °C | CN(C)CCNc1cccc(C(=O)NCC23CC4CC(CC(C4)C2)C3)c1Cl [Example 56, 2-Chloro-3-(N,N-dimethylamino)ethylamino-N-(tricyclo[3.3.1.1^3,7]dec-1-ylmethyl)-benzamide]
163 to 164 °C | CNc1ccc(Cl)c(C(=O)NCC23CC4CC(CC(C4)C2)C3)c1 [Example 62, 2-Chloro-5-methylamino-N-(tricyclo[3.3.1.1^3,7]dec-1-ylmethyl)-benzamide]
63 to 64 °C | O=C(NCC12CC3CC(CC(C3)C1)C2)c1cc(NCCNCC(O)c2ccccc2)ccc1Cl (centres unmarked) [Example 69, 5-(N-(2-Hydroxy-2-phenylethyl)-2-aminoethyl)amino-2-chloro-N-(tricyclo[3.3.1.1^3,7]dec-1-ylmethyl)-benzamide]
125 to 127 °C | O=C(NCCC12CC3CC(CC(C3)C1)C2)c1ccccc1Cl [Example 72, 2-Chloro-N-(2-[tricyclo[3.3.1.1^3,7]dec-1-yl]ethyl)-benzamide]
147 to 149 °C | Nc1ccc(Cl)c(C(=O)NCCC23CC4CC(CC(C4)C2)C3)c1 [Example 74, 5-Amino-2-chloro-N-(2-[tricyclo[3.3.1.1^3,7]dec-1-yl]ethyl)-benzamide]
160 to 161 °C | CSc1nc(C)ccc1C(=O)NCC12CC3CC(CC(C3)C1)C2 [Example 49, (2-Methylthio-6-methyl)-N-(tricyclo[3.3.1.1^3,7]dec-1-ylmethyl)-3-pyridine carboxamide]
215 °C | CN(C)CCNc1ccc(Cl)c(C(=O)NCC23CC4CC(CC(C4)C2)C3)c1 [Example 57, 2-Chloro-5-(N,N-dimethylamino)ethylamino-N-(tricyclo[3.3.1.1^3,7]dec-1-ylmethyl)-benzamide]
161.4 to 161.5 °C | O=C(NCC12CC3CC(CC(C3)C1)C2)c1cc(I)ccc1Cl [Example 80, 2-Chloro-5-iodo-N-(tricyclo[3.3.1.1^3,7]dec-1-ylmethyl)-benzamide]
109 to 113 °C | O=C(O)CCCOc1ccccc1C(=O)NCC12CC3CC(CC(C3)C1)C2 [Example 50, 2-[[(Tricyclo[3.3.1.1^3,7]dec-1-ylmethyl)amino]carbonyl]phenyl-1-oxybutyric acid]
153 °C | O=C(NCC12CC3CC(CC(Cl)(C3)C1)C2)c1ccccc1Cl [Example 76, 2-Chloro-N-(3-chloro-tricyclo[3.3.1.1^3,7]dec-1-ylmethyl)-benzamide]
155 °C | Cc1ccc(C)c(C(=O)NCC23CC4CC(CC(Cl)(C4)C2)C3)c1 [Example 78, 2,5-Dimethyl-N-(3-chloro-tricyclo[3.3.1.1^3,7]dec-1ylmethyl)-benzamide]
173 to 175 °C | COc1cc(OC)c(C)c(C(=O)NCC23CC4CC(CC(Cl)(C4)C2)C3)c1 [Example 79, 3,5-Dimethoxy-2-methyl-N-(3-chloro-tricyclo[3.3.1.1^3,7]dec-1ylmethyl)-benzamide]
